Where two headings read alike, the source gives them in different places.
Key:
[1] = test system: Phakopsora pachyrhizi (F129L); experiment: Protective control of soybean rust on soybeans (PHAKPA P2); assay type: in vivo; details: for % PHAKPA (F129L) Disease level P2 at 4 ppm: protective P2, 4 ppm; for % PHAKPA (F129L) Disease level P2 at 4 ppm / % PHAKPA (F129L) Disease level P2 at 16 ppm: soybean rust F129L; for % PHAKPA (F129L) Disease level P2 at 16 ppm: protective P2, 16 ppm
[2] = test system: Phakopsora pachyrhizi (F129L); experiment: Protective control of soybean rust on soybeans (PHAKPA P6); assay type: in vivo; details: for % PHAKPA (F129L) Disease level P6 at 4 ppm: protective P6, 4 ppm; for % PHAKPA (F129L) Disease level P6 at 4 ppm / % PHAKPA (F129L) Disease level P6 at 16 ppm: soybean rust F129L; for % PHAKPA (F129L) Disease level P6 at 16 ppm: protective P6, 16 ppm; for PHAKPA (F129L) Disease level (%) P6 at 4 ppm / PHAKPA (F129L) Disease level (%) P6 at 16 ppm: P6 protective, % diseased leaf area
[3] = test system: Pyricularia oryzae; experiment: microbe, parasite or virus in culture; assay type: cell-based; details: for activity at 0.016 ppm: Pyricularia oryzae, 168 h, read-out: Fungal growth (%) PYRIOR
[4] = test system: Septoria tritici; experiment: microbe, parasite or virus in culture; assay type: cell-based; details: for activity at 0.25 ppm: Zymoseptoria tritici, 168 h, read-out: Fungal growth (%) SEPTTR
[5] = test system: Leptosphaeria nodorum; experiment: Micro titer plate test against Leptosphaeria nodorum causing wheat leaf spots (LEPTNO); assay type: cell-based; details: for activity at 0.063 ppm: Parastagonospora nodorum, 168 h, read-out: Fungal growth (%) LEPTNO
[6] = test system: Alternaria solani (wt); experiment: microbe, parasite or virus in culture; assay type: cell-based
[7] = test system: Alternaria solani (F129L); experiment: Micro titer plate test against Alternaria solani causing early blight (ALTESO F129L); assay type: cell-based
[8] = test system: Cercospora sojina; experiment: microbe, parasite or virus in culture; assay type: cell-based; details: for activity at 4 ppm: Cercospora sojina, 168 h, read-out: Fungal growth (%) CERCSO
[9] = test system: Microdochium nivale; experiment: Micro titer plate test against Microdochium nivale causing snow mould (MONGNI); assay type: cell-based; details: for activity at 0.016 ppm: Microdochium nivale, 168 h, read-out: Fungal growth (%) MONGNI
[10] = test system: Pyrenophora teres (wt); experiment: Micro titer plate test against Pyrenophora teres causing net blotch on barley (PYRNTE wt); assay type: cell-based; details: 168 h, read-out: Fungal growth (%) PYRNTE wt
[11] = test system: Colletotrichum orbiculare; experiment: Micro titer plate test against Colletotrichum orbiculare causing anthracnose (COLLLA); assay type: cell-based; details: for activity at 0.063 ppm: Colletotrichum orbiculare, 168 h, read-out: Fungal growth (%) COLLLA
[12] = test system: Pyrenophora teres (F129L); experiment: Micro titer plate test against Pyrenophora teres causing net blotch on barley (PYRNTE F129L); assay type: cell-based; details: 0.25 ppm
[13] = test system: Phakopsora pachyrhizi (wt); assay type: in vivo; details: Qo I-sensitive wt isolate (0% F129L)
[14] = P2 protective, % diseased leaf area
[15] = Alternaria solani, 168 h, 0.016 ppm, read-out: Fungal growth (%) ALTESO wt
[16] = Alternaria solani, 168 h, 0.016 ppm, read-out: Fungal growth (%) ALTESO F129L

CNC(=O)/C(=N/OC)c1cccc(C)c1CO/N=C(\C)c1cccc(C(F)(F)F)c1 [Ex. 8]
PHAKPA (F129L) Disease level (%) P2 at 1 ppm ([1]; P2 protective, 1 ppm, % diseased leaf area): 6%
PHAKPA (F129L) Disease level (%) P2 at 4 ppm [1, 14]: 1%
% PHAKPA (F129L) Disease level P2 at 4 ppm [1]: 4%
% PHAKPA (F129L) Disease level P2 at 16 ppm [1]: 0%
% PHAKPA (F129L) Disease level P6 at 4 ppm [2]: 5%
% PHAKPA (F129L) Disease level P6 at 16 ppm [2]: 0%
activity at 0.016 ppm [3]: 13%
activity at 0.25 ppm [4]: 57%
Fungal growth (%) LEPTNO [5]: 70%
activity at 0.063 ppm [5]: 70%
activity at 0.016 ppm [6, 15]: 56%
activity at 0.016 ppm ([7]; Alternaria solani, 168 h, read-out: Fungal growth (%) ALTESO F129L, 0.016 ppm): 55%
Fungal growth (%) CERCSO ([8]; 4 ppm): 27%
activity at 4 ppm [8]: 27%
Fungal growth (%) MONGNI [9]: 54%
activity at 0.016 ppm [9]: 54%

CO/N=C(/C(=O)OC)c1cccc(C)c1CO/N=C(\C)c1cccc(C(F)(F)F)c1 [Ex. 9]
PHAKPA (F129L) Disease level (%) P2 at 16 ppm [1, 14]: 23%
% PHAKPA (F129L) Disease level P2 at 4 ppm [1]: 35%
% PHAKPA (F129L) Disease level P2 at 16 ppm [1]: 23%
PHAKPA (F129L) Disease level (%) P6 at 4 ppm [2]: 41%
% PHAKPA (F129L) Disease level P6 at 4 ppm [2]: 41%
% PHAKPA (F129L) Disease level P6 at 16 ppm [2]: 4%
activity at 0.016 ppm [3]: 38%
activity at 0.063 ppm [5]: 67%
activity at 0.016 ppm [6, 15]: 73%
activity at 0.025 ppm [10]: 44%
activity at 4 ppm ([8]; 4 ppm): 11%

CNC(=O)/C(=N/OC)c1cccc(C)c1CO/N=C(\C)c1cccc(C)c1 [Ex. 77]
PHAKPA (F129L) Disease level (%) P2 at 4 ppm [1, 14]: 37%
% PHAKPA (F129L) Disease level P2 at 4 ppm [1]: 67%
% PHAKPA (F129L) Disease level P2 at 16 ppm [1]: 4%
PHAKPA (F129L) Disease level (%) P6 at 16 ppm [2]: 20%
% PHAKPA (F129L) Disease level P6 at 4 ppm [2]: 40%
% PHAKPA (F129L) Disease level P6 at 16 ppm [2]: 3%
Fungal growth (%) PYRIOR ([3]; 0.016 ppm): 20%
Fungal growth (%) SEPTTR ([4]; 0.25 ppm): 49%
Fungal growth (%) COLLLA ([11]; 0.063 ppm): 39%
Fungal growth (%) ALTESO wt ([6]; 0.016 ppm): 73%
Fungal growth (%) ALTESO F129L ([7]; 0.016 ppm): 69%

CO/N=C(/C(=O)OC)c1cccc(C)c1CO/N=C(\C)c1cccc(Cl)c1 [Ex. 153]
PHAKPA (F129L) Disease level (%) P2 at 4 ppm [1, 14]: 19%
PHAKPA (F129L) Disease level (%) P2 at 16 ppm [1, 14]: 5%
% PHAKPA (F129L) Disease level P2 at 4 ppm [1]: 12%
% PHAKPA (F129L) Disease level P2 at 16 ppm [1]: 3%
% PHAKPA (F129L) Disease level P6 at 4 ppm [2]: 22%
% PHAKPA (F129L) Disease level P6 at 16 ppm [2]: 1%
activity at 0.016 ppm [3]: 50%
activity at 0.25 ppm [4]: 0%
activity at 0.063 ppm [11]: 55%
activity at 0.063 ppm [5]: 55%
activity at 0.016 ppm [6, 15]: 71%
activity at 0.016 ppm [7, 16]: 68%
activity at 0.25 ppm [10]: 31%
activity at 4 ppm ([8]; 4 ppm): 26%
activity at 0.016 ppm [9]: 75%

CNC(=O)/C(=N/OC)c1cccc(C)c1CO/N=C(\C)c1cccc(Cl)c1 [Ex. 157]
% PHAKPA (F129L) Disease level P2 at 4 ppm [1]: 1%
% PHAKPA (F129L) Disease level P2 at 16 ppm [1]: 0%
PHAKPA (F129L) Disease level (%) P6 at 4 ppm [2]: 2%
PHAKPA (F129L) Disease level (%) P6 at 16 ppm [2]: 1%
% PHAKPA (F129L) Disease level P6 at 4 ppm [2]: 1%
% PHAKPA (F129L) Disease level P6 at 16 ppm [2]: 0%
activity at 0.016 ppm [3]: 15%
activity at 0.25 ppm [4]: 20%
activity at 0.063 ppm [11]: 63%
activity at 0.25 ppm ([6]; Alternaria solani, 168 h, 0.25 ppm, read-out: Fungal growth (%) ALTESO wt): 27%
activity at 0.016 ppm [7, 16]: 57%
activity at 0.25 ppm [10]: 54%
Fungal growth (%) PYRNTE F129L [12]: 58%
activity at 4 ppm ([8]; 4 ppm): 36%
activity at 0.016 ppm [9]: 56%

Cc1cccc(-n2nnn(C)c2=O)c1COc1ccn(-c2ccc(Cl)cc2)n1 [drawing 930]
PHAKPA P1 DL Disease level (%) ([13]; 0.3 ppm): 78%
PHAKPA P1 DL Disease level (%) ([13]; 1 ppm): 80%
PHAKPA P1 DL Disease level (%) ([13]; 3 ppm): 77%
PHAKPA P1 DL Disease level (%) ([13]; 10 ppm): 48%
PHAKPA P1 DL Disease level (%) ([13]; 30 ppm): 30%
PHAKPA P1 DL Disease level (%) ([13]; 100 ppm): 18%
PHAKPA P1 DL Disease level (%) ([13]; 300 ppm): 5%

CO/N=C(/C(=O)OC)c1cccc(C)c1CO/N=C(\C)c1cccc(OC(F)(F)F)c1 [drawing 934]
activity at 0.016 ppm [3]: 100%
activity at 0.016 ppm [6, 15]: 94%
activity at 0.025 ppm [10]: 84%
activity at 4 ppm ([8]; 4 ppm): 33%

CO/N=C(/C(=O)OC)c1cccc(C)c1CO/N=C(\C)c1cccc(OC(F)(F)F)c1 [drawing 938]
activity at 0.063 ppm [11]: 77%
activity at 4 ppm ([7]; Alternaria solani, 168 h, 4 ppm, read-out: Fungal growth (%) ALTESO F129L): 87%

CO/N=C(/C(=O)OC)c1cccc(C)c1CO/N=C(\C)c1cccc(OC(F)(F)F)c1 [drawing 940]
activity at 0.063 ppm [5]: 79%
activity at 0.25 ppm [10]: 87%
Fungal growth (%) PYRNTE F129L [12]: 84%
activity at 0.016 ppm [9]: 86%

CO/N=C(/C(=O)OC)c1cccc(C)c1CO/N=C(\OC)c1cccc(C(F)(F)F)c1 [drawing 942]
activity at 0.016 ppm [3]: 58%
activity at 0.063 ppm [5]: 100%
activity at 4 ppm ([8]; 4 ppm): 56%

CNC(=O)/C(=N/OC)c1cccc(C)c1CO/N=C(\SC)c1cccc(C(F)(F)F)c1 [drawing 944]
activity at 0.016 ppm [3]: 49%
activity at 0.063 ppm [5]: 93%
activity at 0.016 ppm [7, 16]: 85%
activity at 4 ppm ([8]; 4 ppm): 66%
activity at 0.016 ppm [9]: 84%

CNC(=O)/C(=N/OC)c1cccc(C)c1CO/N=C(\OC)c1cccc(C(F)(F)F)c1 [drawing 946]
activity at 0.016 ppm [3]: 39%
activity at 0.25 ppm [4]: 77%
activity at 0.063 ppm [5]: 95%
activity at 0.016 ppm [6, 15]: 100%
activity at 0.016 ppm [7, 16]: 87%
